Experimental data reported in US7531575B2, “Method of modulating cellular activity and agents useful for same” (Eberhard-Karls-Universität Tübingin, priority 2002, dated 2009).

Tests used:
Assay type in all cases: cell-based, murine
PKCδ = PKCδ translocation by immunocytochemistry in N9 microglia; conditions: N9 cells, PMA 100 nM, TNL 300 μM
Method: Cells grown on glass coverslips were serum-starved for 16 hr, kept in Krebs Ringer HEPES buffer (125 mM NaCl, 5 mM KCl, 1.2 mM MgSO4, 2 mM CaCl2, 1.2 mM KH2PO4, 6 mM glucose, 25 mM HEPES, pH 7.4) for 1 hr and left untreated or treated with PMA (100 nM) without or with pre-incubation (1 hr) with TNL (300 μM). After fixation in ice-cold (−20′) methanol for 20 min, the cells were washed with PBS and incubated for 15 min with 0.1% NaBH4 and 0.1 M glycine in PBS to block autofluorescence. Nonspecific antibody binding was blocked for 45 min with PBG (PBS with 0.045% fish gelatin) containing 5% normal goat serum and 1% bovine serum albumin. Incubation with anti-PKCδ antibody was carried out for 24 hr at 4° after dilution in PBG containing 5% normal goat serum. After four washes with PBG, primary antibody binding was detected with an isotype-specific secondary antibody conjugated with Alexa™546 fluorescent dye. The coverslips were mounted in PermaFluor (Immunotech). Localization of the proteins was examined using confocal laser microscopy (Leica).

NF-κB = NF-κB reporter assay, LPS-stimulated N9 microglia; conditions: N9 cells, LPS 10 μg/mL 4 hr, TNL pre-incubation 1 hr
Method: NF-κB reporter gene activity was assayed as previously described (Platten, M. et al. 2001 supra). Briefly, 8×10^3 cells/well were seeded in a 96-well plate and transfected with an NF-κB cis reporter gene plasmid (PathDetect No. 219077, Stratagene) encoding firefly luciferase using FuGene™ transfection reagent (Roche). pFC-MEKK (Stratagene) and pcDNA3 plasmids cotransfected with the reporter plasmid served as positive and negative controls. After freezing and thawing, the cells were lysed in 40 mM Tricine (pH 7.8) containing 50 mM NaCl, 2 mM EDTA, 1 mM MgSO4, 5 mM DTT and 1% Triton X-100. Lysates were assayed using Luciferase assay reagent (40 mM Tricine, pH 7.8, containing 10 mM MgSO4, 0.5 mM EDTA, 10 mM DTT, 0.5 mM coenzyme A, […] and 0.5 mM beetle luciferine). Luminescence was measured in LumiNunc™ plates (Nunc) in a LumimatPlus™ (EG&G Berthold). Values are expressed as relative light units (RLU).

iNOS mRNA = iNOS mRNA Northern blot, LPS-stimulated N9 microglia; conditions: N9 cells, LPS 10 μg/mL, TNL 300 μM pretreatment 1 hr
Text: TNL was a generous gift of Kissei Pharmaceuticals, LPC (Escherichia coli, 0127:BS), phorbol 12-myristate 13-acetate (PMA) and dexamethasone (DEX) were obtained from Sigma, BAY 11-7082 (BAY), NF-κB SN50 inhibitory peptide (SN50), GF 109203X (GFX) and rottlerin (ROT) were purchased from Biomol. PD098059 (PD) was obtained from Calbiochem. Purified murine interferon-γ (IFN-γ) was purchased from Roche Diagnostics. N9 murine microglial cells were a kind gift from P. Ricciardi-Castagnoli (Righi, M. et al. 1989 supra). Cells were cultured in Dulbecco's modified Eagle's medium (DMEM) supplemented with 10% fetal calf serum (FCS), 2 mM glutamine, penicillin (100 unit/mL) and streptomycin (100 μg/mL) and maintained at 37° in an atmosphere of 5% CO2. Viability was assessed by crystal violet staining.
RNA was isolated using the RNeasy™ kit (Qiagen). Total RNA (10 μg) was separated on 1.2% agarose gels and blotted onto nylon membranes (Amersham). The filters were hybridized according to standard procedures with a ^32P-labeled murine cDNA probe for iNOS. For the generation of the iNOS probe, N9 cells were stimulated with IFN-γ (200 unit/mL) for 24 hr. […]

COc1ccc(/C=C/C(=O)Nc2ccccc2C(=O)O)cc1OC [tranilast, 2-[[3-(3,4-dimethoxyphenyl)-1-oxo-2-propenyl]amino]benzoic acid]
PMA-induced translocation of PKCδ from cytosol to nucleus (PKCδ): abolished | LPS-mediated NF-κB reporter gene activity (NF-κB): did not suppress | LPS induction of iNOS mRNA (iNOS mRNA; 4 and 8 hr): unaffected | LPS induction of iNOS mRNA (iNOS mRNA; 16 hr): no further increase
